Experimental findings from PubChem BioAssay (NCI) are described below.

Where “and” joins values, the source holds several entries; their conditions need not be identical. Identical values can stand only once.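 How tested: cells in 96-well plates exposed to compound for 48 hours at five concentrations. GI50: concentration for 50% inhibition of growth. TGI: total growth inhibition.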

Test systems include MDA-MB-231 breast; HCC-2998 colon; HS 578T breast; T-47D breast; A549 NSCLC; LOX IMVI melanoma; UACC-257 melanoma; K-562 leukemia; OVCAR-4 ovarian; MOLT-4 leukemia.
Experiment in all cases: NCI-60 cell line screen, 48 h

Consider `NC1=NCCN1CC(=O)O`, for which the GI50 with MDA-MB-231 breast is above 10000 µM; in the test on HCC-2998 colon it was above 10000 µM; in the test with HS 578T breast it was above 1000 µM; in the test on T-47D breast, above 10000 µM; in the test on A549 NSCLC, above 10000 µM; in the test with LOX IMVI melanoma, above 10000 µM. Besides, the GI50 in the test with UACC-257 melanoma, with OVCAR-4 ovarian and with MOLT-4 leukemia was above 10000 µM each time. Besides, the TGI in the test on MDA-MB-231 breast, in the test with HCC-2998 colon, in the test on HS 578T breast, in the test with T-47D breast, in the test on A549 NSCLC and in the test on LOX IMVI melanoma was above 10000 µM throughout. Further, the TGI is above 10000 µM with UACC-257 melanoma, above 1000 µM with K-562 leukemia, above 10000 µM in the test on OVCAR-4 ovarian and above 10000 µM with MOLT-4 leukemia.

For `C/C(=C\COc1c2c(cc3c1CCO3)OC1(C=C2)OC(CC/C(C)=C/COc2c3ccoc3cc3oc(=O)ccc23)C(C)(C)O1)CCC(O)C(C)(C)O` (stereo not drawn), the GI50 with MDA-MB-231 breast was 7.59 µM; in the test with HCC-2998 colon, 89.6 µM; in the test on HS 578T breast, 27.3 µM; with T-47D breast, 3.13 µM; in the test on A549 NSCLC, 13.3 µM; in the test on LOX IMVI melanoma, 28.2 µM. Further, the GI50 in the test on UACC-257 melanoma was 25.3 µM; with K-562 leukemia it was 3.82 µM; in the test on OVCAR-4 ovarian, 6.23 µM; in the test on MOLT-4 leukemia it was 4.76 µM. For the same compound, the TGI in the test on MDA-MB-231 breast, in the test with HCC-2998 colon, in the test on HS 578T breast, in the test on T-47D breast, in the test on A549 NSCLC and with LOX IMVI melanoma was above 100 µM each time. The TGI in the test on UACC-257 melanoma is above 100 µM; with K-562 leukemia, above 100 µM; with OVCAR-4 ovarian, above 100 µM; with MOLT-4 leukemia, 53.1 µM.

As for `O=C(NCc1ccncc1)C12CC3CC(C1)CC(c1ccc(Cl)cc1)(C3)C2`, the GI50 with MDA-MB-231 breast is 12 µM; in the test with HCC-2998 colon, 14.3 µM; in the test with HS 578T breast it was 12.9 µM; with T-47D breast, 6.88 µM; in the test with A549 NSCLC, 15 µM; in the test with LOX IMVI melanoma it was 15 µM. Moreover, the GI50 in the test with UACC-257 melanoma was 12.4 µM; with K-562 leukemia, 6.93 µM; with OVCAR-4 ovarian, 10.9 µM; with MOLT-4 leukemia, 8.15 µM. Also, the TGI with MDA-MB-231 breast was 26.2 µM; with HCC-2998 colon, 29.4 µM; in the test with HS 578T breast it was 31.7 µM; with T-47D breast it was 27.5 µM; in the test on A549 NSCLC, 30.8 µM; with LOX IMVI melanoma, 30.1 µM. The TGI stood at 25.1 µM in the test with UACC-257 melanoma, 34.9 µM in the test on K-562 leukemia, 32.8 µM with OVCAR-4 ovarian and 27.2 µM with MOLT-4 leukemia.

On to `COc1cccc2c1c(C1=C(c3cn(C)c4ccccc34)C(=O)NC1=O)cn2C`, for which the GI50 in the test on MDA-MB-231 breast, with HCC-2998 colon, in the test on HS 578T breast, in the test on T-47D breast, with A549 NSCLC and in the test with LOX IMVI melanoma was above 25 µM throughout. The GI50 is above 25 µM in the test on UACC-257 melanoma, above 23.9 µM with K-562 leukemia, above 25 µM with OVCAR-4 ovarian and above 25 µM in the test with MOLT-4 leukemia. In addition, the TGI in the test on MDA-MB-231 breast, in the test with HCC-2998 colon, in the test with HS 578T breast, in the test on T-47D breast, in the test on A549 NSCLC and with LOX IMVI melanoma was above 25 µM in each case. The TGI with UACC-257 melanoma, in the test on K-562 leukemia, in the test with OVCAR-4 ovarian and with MOLT-4 leukemia was above 25 µM in each case.

`CC/C(=C(/c1ccc(O)cc1)c1ccc(OCCN2CCCCC2)cc1)c1ccc(OC)cc1`: the GI50 is 1.61 µM with MDA-MB-231 breast; 2.9 µM with HCC-2998 colon; 2.09 µM in the test with HS 578T breast; 1.01 µM in the test with T-47D breast; 4.11 µM in the test on A549 NSCLC; 1.63 µM in the test on LOX IMVI melanoma. Moreover, the GI50 was 0.29 µM in the test with K-562 leukemia, 1.88 µM in the test on OVCAR-4 ovarian and 1.6 µM in the test with MOLT-4 leukemia. Further, the TGI was determined as 3.84 µM in the test with MDA-MB-231 breast; 9.13 µM in the test on HCC-2998 colon; 5.52 µM in the test with HS 578T breast; 3 µM in the test on T-47D breast; 15.4 µM in the test on A549 NSCLC; 3.27 µM in the test on LOX IMVI melanoma. Besides, the TGI turned out to be 1.16 µM with K-562 leukemia, 5.99 µM in the test with OVCAR-4 ovarian and 5.71 µM with MOLT-4 leukemia.

On to `Cc1cc2c(c3oc(C4(C)OC4C4OC4C)cc(=O)c13)C(=O)c1c(O)c(C3CC(C)(N(C)C)C(O)C(C)O3)cc(C3CC(N(C)C)C(O)C(C)O3)c1C2=O` (stereo not drawn), for which the TGI was 0.000547 µM and 0.00161 µM in the test with MDA-MB-231 breast; 0.000891 µM in the test on HCC-2998 colon; 0.00405 µM and 0.00187 µM in the test on HS 578T breast; 0.00351 µM and 0.0142 µM and 0.0177 µM with A549 NSCLC; 0.00189 µM and 0.000224 µM in the test with LOX IMVI melanoma; 0.00312 µM and 0.000772 µM with UACC-257 melanoma. Further, in the test on K-562 leukemia, the TGI is 0.0147 µM and 0.0192 µM and 0.0348 µM. In addition, the GI50 in the test on HS 578T breast is 0.00158 µM; in the test with T-47D breast, 0.000251 µM; with LOX IMVI melanoma, 0.000175 µM; with K-562 leukemia it was 8.38e-05 µM and 0.000124 µM; in the test with MOLT-4 leukemia, 9.44e-05 µM and 0.000106 µM.

With `S=c1nc(Cl)cc2[nH]c(Cl)cn12`, the TGI is 43.9 µM with MDA-MB-231 breast; above 100 µM in the test with HCC-2998 colon; 6.34 µM in the test on HS 578T breast; above 100 µM with T-47D breast; above 100 µM in the test with A549 NSCLC; above 100 µM in the test on LOX IMVI melanoma. The TGI was above 100 µM with UACC-257 melanoma and 44.9 µM in the test with OVCAR-4 ovarian.

As to `Cc1ncsc1-c1ccc(CNC(=O)[C@@H]2C[C@@H](O)CN2C(=O)[C@@H](NC(=O)C2(C#N)CC2)C(C)(C)C)cc1`, the GI50 in the test on MDA-MB-231 breast was above 100 µM; with HCC-2998 colon it was above 100 µM; with HS 578T breast, 50.5 µM; with T-47D breast, above 100 µM; in the test on A549 NSCLC it was above 100 µM; in the test with LOX IMVI melanoma it was above 100 µM. Also, the GI50 was above 100 µM with UACC-257 melanoma, 80.7 µM with OVCAR-4 ovarian and above 100 µM in the test with MOLT-4 leukemia. Besides, the TGI in the test with MDA-MB-231 breast, in the test with HCC-2998 colon, in the test with HS 578T breast, with T-47D breast, with A549 NSCLC and with LOX IMVI melanoma was above 100 µM each time. Moreover, the TGI in the test on UACC-257 melanoma, in the test with OVCAR-4 ovarian and in the test with MOLT-4 leukemia was above 100 µM each time.

`COc1cc(OC)c(NC(=O)c2cc3ccccc3cc2O)cc1Cl`: the GI50 in the test with MDA-MB-231 breast was 1.78 µM; in the test on HCC-2998 colon it was 3.73 µM; with HS 578T breast, 2.72 µM; in the test on T-47D breast, 2.29 µM; in the test on A549 NSCLC, 3.38 µM; in the test with LOX IMVI melanoma it was 2.69 µM. For the same compound, the GI50 in the test on K-562 leukemia was 4.42 µM; with OVCAR-4 ovarian, 3 µM; in the test on MOLT-4 leukemia, 3.98 µM. Further, the TGI was 4.78 µM with MDA-MB-231 breast; 13.8 µM in the test with HCC-2998 colon; 8.95 µM in the test with HS 578T breast; above 100 µM with T-47D breast; 10.5 µM in the test on A549 NSCLC; 9.37 µM in the test with LOX IMVI melanoma. In addition, the values for the TGI in the test on K-562 leukemia, in the test with OVCAR-4 ovarian and with MOLT-4 leukemia were above 100 µM, above 100 µM and 30.3 µM, respectively.

For `COc1ccc(CNc2nc3cc(N)cc(N)c3nc2-c2ccccc2)cc1`, the GI50 in the test on MDA-MB-231 breast is 2.9 µM; in the test on HCC-2998 colon it was 21.8 µM; in the test with HS 578T breast, 26.9 µM; with T-47D breast, 2.8 µM; in the test on A549 NSCLC it was 21.5 µM; in the test with LOX IMVI melanoma, 13.6 µM. Besides, the GI50 with UACC-257 melanoma is 16.3 µM; with K-562 leukemia, 25.4 µM; in the test with OVCAR-4 ovarian, 8.12 µM. The TGI in the test with MDA-MB-231 breast is 13.8 µM; with HCC-2998 colon, 51.7 µM; with HS 578T breast it was above 100 µM; in the test with T-47D breast, 11 µM; in the test with A549 NSCLC, 59.8 µM; in the test on LOX IMVI melanoma, 27.4 µM. Further, the TGI stood at 30.4 µM with UACC-257 melanoma, 97.1 µM in the test on K-562 leukemia and 21.3 µM in the test with OVCAR-4 ovarian.

In the case of `CSc1ncnc2c1ncn2C1OC(CO)C(O)OC1O` (stereo not drawn), the TGI with MDA-MB-231 breast was 14.6 µM; in the test on HS 578T breast, above 100 µM; in the test with T-47D breast it was 17.7 µM; with A549 NSCLC, above 100 µM; with LOX IMVI melanoma, 15.4 µM; with UACC-257 melanoma it was 15.2 µM. The TGI in the test with K-562 leukemia stood at 59.8 µM; with OVCAR-4 ovarian, 96.3 µM; with MOLT-4 leukemia, 30.1 µM.

Turning to `Cc1ccc(-c2nc(N3CCCNCC3)c3oc(-c4ccccc4)nc3n2)cc1`, the GI50 with MDA-MB-231 breast is 1.77 µM; with HCC-2998 colon, 1.82 µM; in the test on HS 578T breast it was 1.94 µM; in the test on T-47D breast it was 2.02 µM; in the test on A549 NSCLC, 1.71 µM; in the test with LOX IMVI melanoma it was 1.71 µM. For the same compound, the GI50 in the test with UACC-257 melanoma is 1.96 µM; in the test on OVCAR-4 ovarian it was 1.82 µM; in the test with MOLT-4 leukemia, 1.79 µM. Besides, the TGI in the test on MDA-MB-231 breast was found to be 3.27 µM; with HCC-2998 colon it was 3.27 µM; in the test on HS 578T breast it was 4.22 µM; in the test on T-47D breast, 4 µM; with A549 NSCLC, 3.12 µM; with LOX IMVI melanoma it was 3.2 µM. Besides, the TGI in the test on UACC-257 melanoma turned out to be 3.48 µM; with OVCAR-4 ovarian, 3.55 µM; with MOLT-4 leukemia, 3.58 µM.
